Literature values, collected in patent US20120046286A1, “Novel Compounds” (priority 2009, published 2012).

Experiments:
[1] = system: neutrophils
[2] = system: neutrophils; conditions: treatment of neutrophils; Thelen et al. 1994

SMILES: O=c1cc(N2CCOCC2)oc2c(-c3ccccc3)cccc12 [LY294002]
- effect on neutrophil migration and superoxide release [1]: block neutrophil migration and superoxide release

SMILES: COC[C@H]1OC(=O)c2coc3c2[C@@]1(C)C1=C(C3=O)[C@@H]2CCC(=O)[C@@]2(C)C[C@H]1OC(C)=O [wortmannin]
- effect on fMLP-induced respiratory burst response [2]: prevents the fMLP-induced respiratory burst response
- effect on neutrophil migration and superoxide release [1]: block neutrophil migration and superoxide release
